Test system: NOMO1
Assay: cell viability relative to DMSO control; higher = less cytotoxic
Settings: 48 h
In short: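 Viability is a per-plate percentage relative to DMSO wells, with cell-free wells as background. CellTiter-Glo One luminescence was read after 48 h at 37°C on 1536-well plates (5 μl) of NOMO1 or SEM (500 cells/well) or P12-Ichikawa (1000 cells/well) leukemia cells. The cells had been adapted for at least four passages in each medium and pin-dosed with library compounds in DMSO from 47 μM to 0.79 nM in 11 threefold steps.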

[1] = HPLM + 10% dialyzed FBS, 0.000781 µM
[2] = HPLM + 10% dialyzed FBS, 0.00234 µM
[3] = HPLM + 10% dialyzed FBS, 0.00702 µM
[4] = HPLM + 10% dialyzed FBS, 0.0211 µM
[5] = HPLM + 10% dialyzed FBS, 0.0632 µM
[6] = HPLM + 10% dialyzed FBS, 0.19 µM
[7] = HPLM + 10% dialyzed FBS, 0.569 µM
[8] = HPLM + 10% dialyzed FBS, 1.71 µM
[9] = HPLM + 10% dialyzed FBS, 5.12 µM
[10] = HPLM + 10% dialyzed FBS, 15.4 µM
[11] = HPLM + 10% dialyzed FBS, 46.1 µM
[12] = RPMI 5 mM glucose + 10% FBS, 0.000781 µM
[13] = RPMI 5 mM glucose + 10% FBS, 0.00234 µM
[14] = RPMI 5 mM glucose + 10% FBS, 0.00702 µM
[15] = RPMI 5 mM glucose + 10% FBS, 0.0211 µM
[16] = RPMI 5 mM glucose + 10% FBS, 0.0632 µM
[17] = RPMI 5 mM glucose + 10% FBS, 0.19 µM
[18] = RPMI 5 mM glucose + 10% FBS, 0.569 µM
[19] = RPMI 5 mM glucose + 10% FBS, 1.71 µM
[20] = RPMI 5 mM glucose + 10% FBS, 5.12 µM
[21] = RPMI 5 mM glucose + 10% FBS, 15.4 µM
[22] = RPMI 5 mM glucose + 10% FBS, 46.1 µM
[23] = RPMI 5 mM glucose + 10% dialyzed FBS, 0.000781 µM
[24] = RPMI 5 mM glucose + 10% dialyzed FBS, 0.00234 µM
[25] = RPMI 5 mM glucose + 10% dialyzed FBS, 0.00702 µM
[26] = RPMI 5 mM glucose + 10% dialyzed FBS, 0.0211 µM
[27] = RPMI 5 mM glucose + 10% dialyzed FBS, 0.0632 µM
[28] = RPMI 5 mM glucose + 10% dialyzed FBS, 0.19 µM
[29] = RPMI 5 mM glucose + 10% dialyzed FBS, 0.569 µM
[30] = RPMI 5 mM glucose + 10% dialyzed FBS, 1.71 µM
[31] = RPMI 5 mM glucose + 10% dialyzed FBS, 5.12 µM
[32] = RPMI 5 mM glucose + 10% dialyzed FBS, 15.4 µM
[33] = RPMI 5 mM glucose + 10% dialyzed FBS, 46.1 µM

Compound	cell viability [1]	cell viability [2]	cell viability [3]	cell viability [4]	cell viability [5]	cell viability [6]	cell viability [7]	cell viability [8]	cell viability [9]	cell viability [10]	cell viability [11]	cell viability [12]	cell viability [13]	cell viability [14]	cell viability [15]	cell viability [16]	cell viability [17]	cell viability [18]	cell viability [19]	cell viability [20]	cell viability [21]	cell viability [22]	cell viability [23]	cell viability [24]	cell viability [25]	cell viability [26]	cell viability [27]	cell viability [28]	cell viability [29]	cell viability [30]	cell viability [31]	cell viability [32]	cell viability [33]
O=C(O)C1=NC(C(=O)O)CC(/C=C/N2c3cc(O)c(OC4OC(CO)C(O)C(O)C4O)cc3CC2C(=O)O)=C1 (centres undefined)	111%	111%	115%	103%	117%	106%	99.1%	109%	98.7%	107%	109%	86.4%	86.7%	94.2%	99.4%	119%	108%	98.4%	93.5%	94%	90.6%	104%	104%	101%	101%	113%	104%	101%	94.2%	98.2%	92.4%	104%	117%
O=C(Nc1ccc(F)c(C(F)(F)F)c1)Nc1nnc(-c2ccncc2)s1	112%	120%	127%	130%	134%	136%	118%	112%	118%	108%	111%	123%	113%	124%	106%	114%	105%	121%	102%	108%	107%	101%	119%	124%	128%	124%	125%	131%	113%	128%	116%	114%	100%
CNc1nccc(-c2cccnc2Oc2cc(C(=O)Nc3cccc(C(F)(F)F)c3)ccc2C)n1	104%	111%	120%	135%	130%	147%	127%	117%	115%	82.7%	110%	115%	102%	112%	125%	120%	133%	130%	119%	112%	87.7%	98.2%	98%	105%	108%	116%	108%	134%	105%	125%	125%	78.2%	99.1%

Source: the supplement of paper PMC11451515
